Assay results published in PubChem BioAssay (NCI).
Several values for one entry are separate records, joined by “and”; a condition that tells them apart may be missing. Identical values can stand only once.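 Briefly, cells in 96-well plates were exposed to five compound concentrations for 48 h, and endpoints were estimated by linear interpolation. GI50 = concentration required for 50% inhibition of growth. TGI denotes the concentration required for complete inhibition of growth.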

Key:
Test in all cases: NCI anticancer screen, dose series, 48 h
[1] = system: HOP-62 NSCLC
[2] = system: NCI-H23 lung
[3] = system: OVCAR-8 ovarian
[4] = system: MOLT-4 leukemia
[5] = system: CAKI-1 renal
[6] = system: NCI/ADR-RES ovarian
[7] = system: UACC-62 melanoma
[8] = system: DU-145 prostate
[9] = system: SK-MEL-28 melanoma
[10] = system: K-562 leukemia

| SMILES | GI50 [1] | TGI [1] | GI50 [2] | TGI [2] | GI50 [3] | TGI [3] | GI50 [4] | TGI [4] | GI50 [5] | TGI [5] | GI50 [6] | TGI [6] | GI50 [7] | TGI [7] | GI50 [8] | TGI [8] | GI50 [9] | TGI [9] | GI50 [10] | TGI [10] |
| --- | --- | --- | --- | --- | --- | --- | --- | --- | --- | --- | --- | --- | --- | --- | --- | --- | --- | --- | --- | --- |
| CCC(=O)Nc1ccc(C)c(-c2ccc(C(=O)NCC3CC3)cc2)c1 | > 25 µM | > 25 µM | > 25 µM | > 25 µM | > 25 µM | > 25 µM | > 25 µM | > 25 µM | > 25 µM | > 25 µM | > 25 µM | > 25 µM | > 25 µM | > 25 µM | > 25 µM | > 25 µM | > 25 µM | > 25 µM | > 25 µM | > 25 µM |
| C=C(CO)[C@@H]1CC[C@]2(COC3CCCCO3)CC[C@]3(C)[C@H](CC[C@@H]4[C@@]5(C)C=C(C=O)C(=O)C(C)(C)[C@@H]5CC[C@]43C)[C@@H]12 (stereo not given in full) | 1.51 µM | 3.23 µM | 0.311 µM | 1.02 µM | 0.356 µM | 1.44 µM | 0.307 µM | 1.21 µM | 0.245 µM | 0.7 µM | 0.479 µM | 1.8 µM | 0.177 µM | 0.386 µM | 0.523 µM | 1.72 µM | 0.254 µM | 0.688 µM | 0.316 µM | 1.28 µM |
| Clc1ccccc1CNc1c2ccccc2nc2ccccc12 | 3.62 µM | 12.8 µM | 1.67 µM | 8.9 µM | 2.41 µM | 13.3 µM | 1.84 µM | 16.3 µM | 2.11 µM | 8.08 µM | 2.04 µM | 9.52 µM | 2.3 µM | 9.18 µM | 2.45 µM | 8.58 µM | 2.75 µM | 9.21 µM | 1.48 µM | 41.7 µM |
| CC(CN(C)C)Oc1ccccc1NC1=C(Cl)C(=O)C(Nc2ccccc2OC(C)CN(C)C)=C(Cl)C1=O (stereo not given) | 1.67 µM | 3.07 µM | 0.273 µM | 0.915 µM | 0.337 µM | 1.71 µM | 0.195 µM | 0.51 µM | 1.34 µM | 2.72 µM | 1.97 µM | 8.53 µM | 1.55 µM | 3.05 µM | 0.255 µM | 0.686 µM | 1.5 µM | 2.87 µM | 0.21 µM | 0.507 µM |
| CC1(C)NCCC[C@]2(C)[C@H]3CC[C@@H]4[C@H]5[C@H](C(=O)/C=C/c6ccccn6)CC[C@]5(CO)CC[C@@]4(C)[C@]3(C)CC[C@@H]12 | 6.23 µM | 29.4 µM | 3.33 µM | 14 µM | 2.02 µM | 4.54 µM | 2.35 µM | 7.18 µM | 2.14 µM | 6.85 µM | 3.43 µM | 13.9 µM | 4 µM | 17.2 µM | 3.56 µM | 12.4 µM | 3.75 µM | 15.7 µM | 2.19 µM | > 100 µM |
| CCCCCCCCCCCCCCCCCCOCC(CCP(=O)(CP(=O)(O)O)Oc1ccccc1)OCCCCCCCCCCCCCCCCCC (stereo not given) |  | > 100 µM |  | > 100 µM |  | > 100 µM |  | > 100 µM |  | > 100 µM |  | > 100 µM |  | > 100 µM |  | > 100 µM |  | > 100 µM |  | > 100 µM |
| COc1cc(-c2csc(NC(=O)Nc3ccc(C(F)(F)F)cc3)n2)cc(OC)c1OC | 2.01 µM | 5.07 µM | 2.48 µM | 8.81 µM | 2.97 µM | 10.5 µM | 1.85 µM | 5.46 µM | 2.41 µM | 8.62 µM | 2.12 µM | 6.94 µM | 1.99 µM | 5.38 µM | 3.22 µM | 12.8 µM | 2.22 µM | 5.79 µM | 3.04 µM | > 100 µM |
| C/C(=C\c1cc(C(F)(F)F)n(-c2ccc(N)cc2)n1)[C@@H]1C[C@@H]2O[C@]2(C)CCC[C@H](C)[C@H](O)[C@@H](C)C(=O)C(C)(C)[C@@H](O)CC(=O)O1 | 0.0762 µM | > 11.1 µM | 0.0829 µM | > 11.1 µM | 0.0557 µM | > 11.1 µM | 0.0515 µM | > 11.1 µM | 0.221 µM | > 11.1 µM | 0.164 µM | > 8.45 µM | 0.0245 µM | > 6.85 µM | 0.0372 µM | 0.265 µM | 0.547 µM | > 11.1 µM | 0.0203 µM | > 11.1 µM |
| C=C1C(=O)O[C@H]2[C@H]1CC/C(COC(=O)C(C)c1ccc(CC(C)C)cc1)=C\CC[C@@]1(C)O[C@@H]21 (stereo not given in full) | 1.88 µM | 4.26 µM | 1.77 µM | 3.92 µM | 1.32 µM | 3.51 µM | 0.42 µM | 2.02 µM | 1.67 µM | 3.04 µM | 1.85 µM | 5.54 µM | 1.48 µM | 2.85 µM | 1.59 µM | 2.95 µM | 1.63 µM | 3 µM | 0.359 µM | 1.96 µM |
| CC(=O)c1c(CO[N+](=O)[O-])n([O-])c2ccccc2[n+]1=O |  | > 100 µM |  | > 100 µM |  | > 100 µM |  | > 100 µM |  | > 100 µM |  | > 100 µM |  | > 100 µM |  | > 100 µM |  | > 100 µM |  | > 100 µM |
| Oc1ccc(C2c3ccccc3Oc3ccccc32)c2cccnc12 | 0.979 µM | > 100 µM | 2.26 µM | > 100 µM | 1.6 µM | > 100 µM | 1.96 µM | > 100 µM | 0.568 µM | > 100 µM | 1.59 µM | > 100 µM | 1.88 µM | 8.07 µM | 1.94 µM | > 100 µM | 5.12 µM | > 100 µM | 1.37 µM | > 100 µM |
| Cc1ccc(NS(=O)(=O)c2cccc(C#N)c2)c2[nH]cc(C#N)c12 | 20.1 µM and 29.8 µM | 96.4 µM and > 100 µM | 27.5 µM and 27.7 µM | 84.6 µM and > 100 µM | 19.1 µM and 15.8 µM | > 100 µM and 69.3 µM | 8.87 µM and 13.6 µM | > 100 µM | 3.69 µM and 15.7 µM | > 96.8 µM | 14.2 µM and 2.49 µM | > 92.5 µM | 7.07 µM and 15.4 µM | 32.2 µM and 53.2 µM | 23.9 µM and 28.8 µM | > 100 µM | 20.2 µM and 7.55 µM | 98.5 µM and > 44.9 µM | 2.59 µM and 5.08 µM | > 100 µM |
| O=C1/C(=C/c2ccc(Cl)cc2)CCC/C1=C\c1ccc(Cl)cc1 | 8.1 µM | > 100 µM | 3.06 µM | > 100 µM | 3.64 µM | > 100 µM | 4.09 µM | > 100 µM | > 100 µM | > 100 µM | 4.32 µM | > 100 µM | 4.39 µM | > 100 µM | 4.09 µM | > 100 µM | 5.8 µM | > 100 µM | 3.61 µM | > 100 µM |
